The assay concerns Staphylococcus epidermis. Put plainly: ex vivo bacteria/skin adhesion model on intact human skin explants (3H-thymidine-labelled bacteria, liquid scintillation counting). The format is cell-based. An excerpt: L'activité du resvératrol sur l'adhésion de micro-organismes sur la peau ou sur les muqueuses humaines est testée sur un modèle d'adhésion bactéries/peau, tel que décrit ci-après.
Ce modèle d'adhésion bactéries/peau ex vivo est basé sur l'utilisation d'explants de peau humaine intacte montée en sandwich entre une plaque 96 puits sans fond et un support en Plexiglas. Les puits individualisés étanches permettent de tester dans un format standard l'effet du resvératrol sur l'adhésion de Staphylococcus epidermis (bactéries résidentes) à la surface de la peau. Les bactéries sont radio marquées en phase de croissance par incorporation de 3H-thymidine. Cette flore bactérienne est ensuite déposée dans chaque puits. Après une heure d'incubation à 20°C, les puits sont lavés trois fois avec du tampon phosphate salin (PBS) ce qui permet d'éliminer les bactéries libres. Le resvératrol est ensuite ajouté à 0,1 µM et 10 µM et incubé 1 heure à 20°C. A l'issue de cette incubation le contenu de chaque puits est récupéré et compté en scintillation liquide (bactéries désorbées). Les puits sont ensuite lavés avec une solution chaotropique qui permet d'éluer les bactéries adhérentes. Les solutions de lavages sont également compté en scintillation liquide (bactéries adhérentes). Un témoin positif (Fucogel® Acide (poly-[(α-1,3)-Fuc-(α-1,3)-Gal-(α-1,3)-galacturonique]) est inclus à l'étude comme référence.

Where [1] appears, read: Staphylococcus, 1 h, read-out: Bactéries adhérentes.
Setting [2] is: Staphylococcus, read-out: inhibition de l'adhésion des bactéries.

The source of these data is patent publication EP0953345A1, “Use of at least a hydroxystilbene as an agent for decreasing micro-organism adhesion” (priority 1998, dated 1999).

The term inhibition denotes the share of the control response that was lost under treatment.

Turning to `Oc1ccc(C=Cc2cc(O)cc(O)c2)cc1` [resvératrol, 3,4',5-trihydroxystilbène], for the setting “0,1 µM and 10 µM”, the “dose dependence of the activity on adhesion of bacteria to human skin (in words)” value is given as “dose dépendante”. In addition, under setting [1], the activity at 0.1 µM came out at 71% and the activity at 10 µM amounted to 64%. Under setting [2], the inhibition at 1 µM amounted to 29% and the inhibition at 10 µM came to 36%.
